# In PubChem BioAssay (NCI):
#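 All cell lines were grown in 96-well plates and treated with compound for 48 hours. The concentration for 50% growth inhibition is given as GI50. TGI denotes the concentration required for complete inhibition of growth.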
# Assays:
# Assay in all cases: NCI tumour cell line growth inhibition, 48 h
# SK-MEL-28 melanoma = test system: SK-MEL-28 melanoma
# RPMI-8226 leukemia = test system: RPMI-8226 leukemia
# MALME-3M melanoma = test system: MALME-3M melanoma
# NCI-H460 lung = test system: NCI-H460 lung
# CAKI-1 renal = test system: CAKI-1 renal
# HT29 colon = test system: HT29 colon
# K-562 leukemia = test system: K-562 leukemia
# SW-620 colon = test system: SW-620 colon
# RXF 393 renal = test system: RXF 393 renal
# ACHN renal = test system: ACHN renal
Structure (SMILES),TGI (SK-MEL-28 melanoma),TGI (RPMI-8226 leukemia),TGI (MALME-3M melanoma),TGI (NCI-H460 lung),TGI (CAKI-1 renal),TGI (HT29 colon),TGI (K-562 leukemia),TGI (SW-620 colon),TGI (RXF 393 renal),TGI (ACHN renal),GI50 (SK-MEL-28 melanoma),GI50 (MALME-3M melanoma),GI50 (NCI-H460 lung),GI50 (CAKI-1 renal),GI50 (HT29 colon),GI50 (RXF 393 renal),GI50 (ACHN renal),GI50 (SW-620 colon),GI50 (K-562 leukemia),GI50 (RPMI-8226 leukemia)
COc1cc(CNc2nc3ccc(C(F)(F)F)cc3nc2-c2ccccc2)cc(OC)c1OC,> 100 µM,> 100 µM,> 100 µM,> 100 µM,> 100 µM,> 100 µM,> 100 µM,> 100 µM,–,–,–,–,–,–,–,–,–,–,–,–
N#Cc1c(-c2ccco2)cc(-c2ccccc2)[nH]c1=O,> 100 µM,> 100 µM,> 100 µM,> 100 µM,–,> 100 µM,> 100 µM,> 100 µM,> 100 µM,> 100 µM,–,–,–,–,–,–,–,–,–,–
CC(=O)n1c(=O)c2cc3c(=O)n(-c4cccc(C#N)c4)c(=O)c3cc2c1=O,> 100 µM,–,> 100 µM,> 100 µM,> 100 µM,> 100 µM,> 100 µM,> 100 µM,> 100 µM,> 100 µM,–,–,–,–,–,–,–,–,–,–
CC1(C)CC(=O)C(CC2C(=O)c3ccccc3C2=O)C(=O)C1,> 100 µM,–,> 100 µM,> 100 µM,> 100 µM,> 100 µM,> 100 µM,> 100 µM,> 100 µM,> 100 µM,–,–,–,–,–,–,–,–,–,–
CN1c2ccccc2SC2C(c3ccccc3)=NOC21 (centres undefined),> 100 µM,–,86.5 µM,> 100 µM,> 100 µM,> 100 µM,> 100 µM,> 100 µM,> 100 µM,> 100 µM,–,–,–,–,–,–,–,–,–,–
c1ccc(-c2nc(N3CCCNCC3)c3nc(-c4ccccc4)oc3n2)cc1,3.15 µM,–,3.33 µM,3.54 µM,3.02 µM,3.72 µM,–,3.47 µM,3.29 µM,3.11 µM,1.71 µM,1.77 µM,1.86 µM,1.52 µM,1.76 µM,1.66 µM,1.71 µM,1.76 µM,–,–
O=c1[nH]c2cc([N+](=O)[O-])ccc2nc1/C(=N\Nc1ccccc1)C(O)c1ccc2c(c1)OCO2 (centres undefined),> 100 µM,> 100 µM,> 100 µM,> 100 µM,–,> 100 µM,> 100 µM,> 100 µM,> 100 µM,> 100 µM,–,–,–,–,–,–,–,–,–,–
Cc1cccc(C)c1N1C(=O)C(=O)C(c2nc3ccccc3s2)C(=Nc2cccc3c(=O)[nH][nH]c(=O)c23)C1=O (centres undefined),> 100 µM,> 100 µM,> 100 µM,> 100 µM,> 100 µM,> 100 µM,> 100 µM,> 100 µM,–,> 100 µM,–,–,–,–,–,–,–,–,–,–
CC(C)[O-].CC(C)[O-].O=c1cccccc1[O-].O=c1cccccc1[O-].[Ti+4],> 100 µM,> 100 µM,70.2 µM,–,> 100 µM,–,> 100 µM,> 100 µM,–,> 100 µM,–,–,–,–,–,–,–,–,–,–
COc1c(O)c(OC)c2oc(-c3ccc(O)cc3)c(OC)c(=O)c2c1O,> 100 µM,> 100 µM,> 100 µM,> 100 µM,> 100 µM,> 100 µM,> 100 µM,> 100 µM,–,> 100 µM,–,–,–,–,–,–,–,–,–,–
[2H]c1nc(=Nc2cc(NC(=O)C=C)c(N(C)CCN(C)C)cc2OC)[nH]c(-c2cn(C([2H])([2H])[2H])c3ccccc23)c1[2H],3.33 µM,–,3.66 µM,4.37 µM,1.89 µM,3.26 µM,3.78 µM,3.87 µM,3.2 µM,1.65 µM,1.78 µM,1.94 µM,1.9 µM,0.503 µM,1.69 µM,1.4 µM,0.0836 µM,1.86 µM,1.29 µM,–
COC(=O)C1C(=O)N(CCc2c[nH]c3ccccc23)C[C@@H]2CCC(=O)C[C@H]12 (some centres undefined),> 100 µM,> 100 µM,> 100 µM,> 100 µM,> 100 µM,> 100 µM,> 100 µM,> 100 µM,> 100 µM,–,–,–,–,–,–,–,–,–,–,–
COc1ccc2[nH]c(-c3ccc(O)cc3)cc(=O)c2c1,> 100 µM,65.2 µM,> 29.1 µM,9.35 µM,–,8.69 µM,> 48.3 µM,> 100 µM,5.16 µM,> 100 µM,–,–,–,–,–,–,–,–,–,–
COc1ccc(-c2cnoc2-c2cc(OC)c3c(c2)OCCO3)cc1,> 100 µM,33 µM,> 100 µM,12.8 µM,> 100 µM,20.8 µM,> 100 µM,> 100 µM,–,> 58.9 µM,10.1 µM,39.8 µM,0.0327 µM,0.0409 µM,0.0331 µM,–,0.108 µM,0.0302 µM,< 0.0115 µM,0.0477 µM
Cc1ccc(C)c(N2C(=O)C(=O)C(c3nc4ccccc4s3)C(=Nc3cccc4c(=O)[nH][nH]c(=O)c34)C2=O)c1 (centres undefined),> 100 µM,> 100 µM,> 100 µM,> 100 µM,> 100 µM,> 100 µM,> 100 µM,> 100 µM,–,> 100 µM,–,–,–,–,–,–,–,–,–,–
Cc1nc(-c2cccnc2)sc1C(=O)/C=C/c1cccc([N+](=O)[O-])c1,> 100 µM,> 100 µM,> 100 µM,> 100 µM,> 100 µM,> 100 µM,> 100 µM,> 100 µM,> 100 µM,–,–,–,–,–,–,–,–,–,–,–
N.N.N.N.N.O=S(=O)([O-])S(=O)(=O)[O-].[Co+3],> 100 µM,> 100 µM,> 100 µM,> 100 µM,–,> 100 µM,> 100 µM,> 100 µM,–,> 100 µM,> 100 µM,> 100 µM,> 100 µM,–,> 100 µM,–,> 100 µM,> 100 µM,> 100 µM,> 100 µM
COc1cc(C2c3cc4c(cc3[C@@H](Nc3ccc5c(c3)OCCO5)C3COC(=O)[C@H]23)OCO4)cc(OC)c1O (some centres undefined),> 47.6 µM,8.42 µM,26.4 µM,2.23 µM,2.42 µM,5.96 µM,16.4 µM,> 79.1 µM,4.64 µM,–,–,–,–,–,–,–,–,–,–,–
CSc1ccc(N(C)c2nc(C)nc3c2CCC3)cc1,36.6 µM,25 µM,–,19 µM,> 100 µM,11.1 µM,> 100 µM,> 100 µM,> 100 µM,> 100 µM,1.38 µM,–,< 0.01 µM,< 0.01 µM,< 0.01 µM,< 0.01 µM,< 0.01 µM,< 0.01 µM,< 0.01 µM,< 0.01 µM
